# Measurements from patent publication US12172960B2, “Organic compound salts” (priority 2022, dated 2024).
# Values joined by “and” are separate entries in the source; they are usually repeats but may differ in a detail not shown here. Identical values can stand only once.
# What was measured:
# Format in all cases: physicochemical
# [1] = Dynamic vapor sorption (DVS) analysis; settings: for further increase between 60% RH and 90% RH / water gain up to 60% RH / total water absorption over the humidity range: first sorption cycle, hydrobromide; for further increase between 60% RH and 90% RH: 60% RH to 90% RH; for total water absorption over the humidity range: up to 90% RH
# Source text: Dynamic vapor sorption (DVS) data was collected for both 5-MeO DMT HBr Pattern A and Pattern B. The DSV data are shown in FIG. 10 (Pattern A) und FIG. 11 (Pattern B). DVS profiles are almost identical.
# [2] = Solubility and pH in water for injection (24 hours equilibration, 25° C.); settings: for pH value of the suspension/solution after 24 hours: in water for injection, determined at 25° C.; for solubility at 24 h: water for injection, 24 hours of equilibration, 25° C.
# Description: 5-MeO-DMT freebase and 5-MeO-DMT hydrobromide (30 mg) were weighed out into crystallisation tubes, water for injection (WFI; 150 μL, 5 vols) was charged and samples were left to equilibrate (25° C.) over 24 hours.
# The free base led to a suspension. An additional 850 μl of water was added. The mixture was still a suspension. […] The pH value of the suspension after 24 hours was 9.93, determined at 25° C.
# In the case of 5-MeO-DMT HBr, a solution was obtained. […] The pH value of the solution after 24 hours was 6.84, determined at 25° C.
# [3] = Flow properties (bulk density, tapped density); settings: for Hausner Factor: Tapped density/Bulk density; for Carr's Index: calculated from tapped and bulk density
# Description: The bulk density and the tapped density of an HBr salt sample as obtained according to the above method was determined applying standard methods. • Bulk density: 0.19 g/cm^3 • Tapped density: 0.25 g/cm^3 • From this, the Carr's Index characterizing flow properties can be calculated ([…]). The index is 24%.
# [4] = Particle size distribution by laser light scattering; settings: sample weight 800 mg; listed as HBr salt, hydrobromide
# Description: The particle size distribution of a sample obtained as in the above example was determined using a laser light scattering method.
Structure (SMILES),modification of form following equilibration at extremes of relative humidity [1],further increase between 60% RH and 90% RH [1] [wt %],water gain up to 60% RH [1] [%],total water absorption over the humidity range [1] [wt %],pH value of the suspension/solution after 24 hours [2],"solubility at 24 h ([2]; pH 9.93, thermodynamic from solid) [µg/mL]",Bulk density [3] [g/mL],Tapped density [3] [g/mL],Hausner Factor [3],Carr's Index [3] [%],Dv10 [4],Dv90 [4],"solubility at 24 h ([2]; pH 6.84, thermodynamic from solid) [µg/mL]"
"Br.COc1ccc2[nH]cc(CCN(C)C)c2c1 [5-MeO-DMT HBr Pattern A, 5-methoxy-N,N-dimethyltryptamine hydrobromide]",Neither form showed any modification,1.56,0.13,1.7,–,–,–,–,–,–,–,–,–
"COc1ccc2[nH]cc(CCN(C)C)c2c1 [free base, 5-Methoxy-N,N-dimethyltryptamine, reference compound]",–,–,–,–,9.93,3290,0.32,0.54,1.68,41,–,–,–
"Br.COc1ccc2[nH]cc(CCN(C)C)c2c1 [5-MeO-DMT HBr, 5-methoxy-N,N-dimethyltryptamine hydrobromide]",–,–,–,–,6.84,–,0.19,0.25,1.31,24,57.8 μm and 60.8 μm and 65.1 μm,613 μm and 630 μm and 643 μm,> 200000
"Br.COc1ccc2[nH]cc(CCN(C)C)c2c1 [5-MeO-DMT HBr Pattern B, 5-methoxy-N,N-dimethyltryptamine hydrobromide]",Neither form showed any modification,1.57,0.14,1.71,–,–,–,–,–,–,–,–,–
